“Also recorded” adds a separate entry of the source. Blank lines part the entries; values can stand above or below the molecule they belong to.
Columns and labels:
[1] = test system: A. fumigatus wildtype (ATCC46645); test: In vitro uptake assay in A. fumigatus; format: cell-based, Aspergillus fumigatus; conditions: iron-starvation condition, 45 min, normalized to [^68Ga]TAFC uptake from the same experiment, n = 3
Experimental: For in vitro uptake studies, A. fumigatus wildtype (ATCC46645) was used. Fungal strain was cultured at 37 °C in Aspergillus minimal medium (AMM) containing 1 % (m/v) glucose as carbon source, 20 mM glutamine as nitrogen source, salts, and trace elements. Iron-sufficient media were prepared by adding FeSO4 to a final concentration of 30 μM. For iron-deficient conditions, supplementation of iron was omitted. Iron starvation was verified by the detection of extracellular siderophore production which is suppressed by iron supplementation.
Uptake assays were performed in either iron-deficient or iron-sufficient A. fumigatus wildtype cultures. In a 96-well MultiScreen Filter Plates HTS (1 μm glass fiber filter, Merck Millipore, Darmstadt, Germany), 180 μl of A. fumigatus suspended in iron-replete or iron-depleted medium was added. [^68Ga]siderophores (approx. 1 × 10^5 cpm, 80 nM) were incubated with either PBS pH 7.4 (total series) or blocking solution (10 μM [Fe]TAFC) (non-specific series) at RT for 45 min in quadriplicates. The incubation was interrupted by suction of the medium and the plate was washed twice with ice-cold TRIS-buffered saline (10 mM, pH 7.3). The filters were isolated and the remaining activities were measured in the gamma counter. The uptake was calculated as % uptake of total activity added; each assay was repeated three times. To normalize uptake variations between different fungal cultures, the uptake of each [^68Ga]siderophore was expressed as the ratio to [^68Ga]TAFC uptake from the same experiment. The mean values of three different assays were used to quantitatively compare the difference in uptake between the compounds.

[2] = Biodistribution in healthy BALB/c mice; conditions: 90 min p.i.; for species detected in urine (RP-HPLC urinary metabolic profile): BALB/c mice
Experimental: At 90 min post injetion (p.i.), mice were sacrified by cervical dislocation. Organs and tissues (blood, spleen, pancrease, stomach, intestine, kidneys, liver, heart, lung, muscle, femur) were collected and weighed. Radioactivities accumulated by tissues were measured in the gamma counter. The obtained values were expressed as the percentage of injected dose per gram tissue (%ID/g). Urine sample from each animal was injected to RP-HPLC for analysis of urinary metabolic profile of [^68Ga]siderophore.

[3] = Stability in PBS pH 7.4 (RP-HPLC, %RCP); conditions: PBS pH 7.4, 37 °C, n = 3
Experimental: (§1) [^68Ga]siderophore (50 μl, 2 nmol) was incubated in 450 μl PBS or human serum at 37 °C. At each time point, aliquot of PBS was injected directly to RP-HPLC whereas serum aliquot was mixed with MeOH, vortexed, and centrifuged at 20,000 rcf for 2 min. Supernatant was diluted with H2O and subsequently analyzed by RP-HPLC. The stability was presented as %RCP of radiotracer (n = 3).

[4] = Protein binding in human serum (size exclusion spin columns); conditions: 37 °C, n = 3
Experimental: At selected time points, 25 μl of serum aliquots was applied on size exclusion spin columns MicroSpin™ G-50 (GE Healthcare, Vienna, Austria). Columns were centrifuged at 2000 rcf for 2 min to separate protein bound radiotracer (eluate) from non-protein bound radiotracer (column). Protein binding ability was determined by measuring activities of column and eluate in the gamma counter.

A. fumigatus infection = test: Small animal PET/CT imaging in rat IPA model; conditions: IPA Lewis rats (A. fumigatus lung infection), r.o. injection ~6 MBq, PET/CT 45 min p.i.
Experimental: (§2) PET and CT images were acquired with an Albira PET/SPECT/CT small animal imaging system (Bruker Biospin Corporation, Woodbridge, CT, USA). A. fumigatus infection in rats was established as described by Petrik, et al.. A group of 3 female Lewis rats (2–3 months old), healthy or lung infected, were injected retro-orbitally (r.o.) with [^68Ga] […] Animals were anesthetized with isoflurane (FORANE, Abbott Laboratories, Abbott Park, IL, USA) (2 % flow rate) and positioned prone head first in the Albira system. PET/CT imaging was started 45 min p.i. with a 10-min PET (FOV 148 mm axial) and a subsequent triple CT scanning (FOV 3 × 65 mm axial, 45 kVp, 400 μA, at 400 projections). For reconstruction, Albira software (Bruker Biosoin Corporation, Woodbridge, CZ, USA) was used involving filtered backprojection and MLEM algorithms. PMOD software (PMOD Technologies Ltd., Zurich, Switzerland) was used to analyze and view the reconstructed images.

[5] = Stability in fresh human serum (RP-HPLC, %RCP); conditions: 37 °C, n = 3
Experimental: as §1

[6] = Small animal PET/CT imaging in non-infected Lewis rats; conditions: for excretion in PET/CT images: healthy Lewis rats, 45 min p.i.; for Lung uptake (non-infected): non-infected Lewis rats, r.o. injection ~6 MBq, PET/CT 45 min p.i.
Experimental: as §2

[7] = test system: A. fumigatus mutant strain ΔsidA/ΔftrA; test: Siderophore utilization growth assay; format: cell-based, Aspergillus fumigatus; conditions: 37 °C; for degree of utilization / growth support by [Fe]siderophore: 48 h, 0.1-100 μM [Fe]siderophore in AMM; for concentration of [Fe]siderophore at which growth was supported: 48 h incubation
Description: For siderophore utilization growth assays, A. fumigatus mutant strain ΔsidA/ΔftrA [7], which can grow only in the presence of externally added iron-siderophores or at high iron concentrations, was used. The fungal strain was inoculated in iron-deficient culture as described above.
To investigate the ability or inability of A. fumigatus to take up and utilize [Fe]siderophores as iron source, a growth assay with the A. fumigatus mutant strain ΔsidA/ΔftrA was employed. In a 24-well plate, aliquots of 10^3 conidia of mutant strain were point inoculated on 1 ml of AMM containing 0.1, 1, 10, 50, or 100 μM of [Fe]siderophore and incubated at 37 °C for 48 h. For the control, fungi were grown in iron-limited AMM without adding [Fe]siderophore.

[8] = healthy BALB/c mice, i.v., n = 3

Molecule: CCC(=O)NC1CCCN(O)C(=O)C=C(C)CCOC(=O)C(NC(=O)CC)CCCN(O)C(=O)C=C(C)CCOC(=O)C(NC(=O)CC)CCCN(O)C(=O)C=C(C)CCOC1=O (stereo not shown) (68Ga complex, metal not drawn) [TPFC, tripropanoyl(FSC)]
uptake ratio to [^68Ga]TAFC [1]: 1.40 | uptake ratio to [^68Ga]TAFC ([1]; listed as [^68Ga]TPFC): ~1.4 | species detected in urine (RP-HPLC urinary metabolic profile) [2]: only intact | excretion ([2]; healthy BALB/c mice, i.v.): rapid renal excretion | blood levels [2, 8]: < 0.1 %ID/g | uptake in intestine [2, 8]: lower than 3 %ID/g | Stability in PBS (%) ([3]; 30 min): 99.90 ± 0.02% | Stability in PBS (%) ([3]; 60 min): 99.86 ± 0.04% | Stability in PBS (%) ([3]; 120 min): 99.79 ± 0.11% | Protein binding (%) ([4]; incubation time 30 min): 2.31 ± 0.57% | Protein binding (%) ([4]; incubation time 60 min): 3.39 ± 0.32% | Protein binding (%) ([4]; incubation time 120 min): 2.65 ± 0.66% | Lung uptake (infected) (A. fumigatus infection): 0.63 ± 0.08 %ID/g | Stability in serum (%) ([5]; 30 min): 99.67 ± 0.19% | Stability in serum (%) ([5]; 60 min): 99.56 ± 0.23% | Stability in serum (%) ([5]; 120 min): 99.54 ± 0.25% | excretion in PET/CT images ([6]; listed as [^68Ga]TPFC): excreted rapidly via the urinary system; also recorded: certain hepatobiliary excretion | Lung uptake (non-infected) [6]: 0.20 ± 0.02 %ID/g

species detected in urine (RP-HPLC urinary metabolic profile) [2]: only intact | excretion ([2]; healthy BALB/c mice, i.v.): rapid renal excretion | blood levels [2, 8]: < 0.1 %ID/g | Stability in PBS (%) ([3]; 30 min): 99.89 ± 0.02% | Stability in PBS (%) ([3]; 60 min): 99.83 ± 0.13% | Stability in PBS (%) ([3]; 120 min): 99.73 ± 0.03% | Protein binding (%) ([4]; incubation time 30 min): 2.54 ± 1.01% | Protein binding (%) ([4]; incubation time 60 min): 3.55 ± 0.68% | Protein binding (%) ([4]; incubation time 120 min): 2.96 ± 0.33% | Lung uptake (infected) (A. fumigatus infection): 0.69 ± 0.11 %ID/g | Stability in serum (%) ([5]; 30 min): 99.48 ± 0.29% | Stability in serum (%) ([5]; 60 min): 99.46 ± 0.09% | Stability in serum (%) ([5]; 120 min): 99.41 ± 0.19% | excretion in PET/CT images [6]: excreted rapidly via the urinary system | Lung uptake (non-infected) [6]: 0.20 ± 0.03 %ID/g
Molecule: CC(=O)NC1CCCN(O)C(=O)C=C(C)CCOC(=O)C(NC(C)=O)CCCN(O)C(=O)C=C(C)CCOC(=O)C(NC(C)=O)CCCN(O)C(=O)C=C(C)CCOC1=O (stereo not shown) (68Ga complex, metal not drawn) [TAFC, triacetylfusarinine C]
uptake ratio to [^68Ga]TAFC [1]: 1

Molecule: CC(=O)NC1CCCN([O-])C(=O)C=C(C)CCOC(=O)C(NC(=O)CCC(=O)O)CCCN([O-])C(=O)C=C(C)CCOC(=O)C(NC(C)=O)CCCN([O-])C(=O)C=C(C)CCOC1=O.[Fe+3] (stereo not shown) [[Fe]DAFC(suc), succinyl[Fe]DAFC]
degree of utilization / growth support by [Fe]siderophore [7]: low degree | concentration of [Fe]siderophore at which growth was supported [7]: 1 µM

Molecule: CCC(=O)NC1CCCN([O-])C(=O)C=C(C)CCOC(=O)C(NC(=O)CC)CCCN([O-])C(=O)C=C(C)CCOC(=O)C(NC(=O)CC)CCCN([O-])C(=O)C=C(C)CCOC1=O.[Fe+3] (stereo not shown) [[Fe]TPFC, tripropanoyl[Fe]FSC]
degree of utilization / growth support by [Fe]siderophore [7]: Medium degree

Molecule: tributanoyl[Fe]FSC [[Fe]TBuFC]
degree of utilization / growth support by [Fe]siderophore [7]: Medium degree

Molecule: CC(=O)NC1CCCN([O-])C(=O)C=C(C)CCOC(=O)C(NC(C)=O)CCCN([O-])C(=O)C=C(C)CCOC(=O)C(N)CCCN([O-])C(=O)C=C(C)CCOC1=O.[Fe+3] (stereo not shown) [[Fe]DAFC, diacetyl[Fe]FSC]
concentration of [Fe]siderophore at which growth was supported [7]: 0.1 µM

Molecule: CC1=CC(=O)N([O-])CCCC(NC(=O)CN)C(=O)OCCC(C)=CC(=O)N([O-])CCCC(NC(=O)CN)C(=O)OCCC(C)=CC(=O)N([O-])CCCC(NC(=O)CN)C(=O)OCC1.[Fe+3] (stereo not shown) [[Fe]FSC(gly)3, triglycyl[Fe]FSC]
degree of utilization / growth support by [Fe]siderophore [7]: low degree | concentration of [Fe]siderophore at which growth was supported [7]: 1 µM

Molecule: CC(=O)NC1CCCN([O-])C(=O)C=C(C)CCOC(=O)C(N)CCCN([O-])C(=O)C=C(C)CCOC(=O)C(N)CCCN([O-])C(=O)C=C(C)CCOC1=O.[Fe+3] (stereo not shown) [[Fe]MAFC, acetyl[Fe]FSC]
concentration of [Fe]siderophore at which growth was supported [7]: 0.1 µM

Molecule: CCCC(=O)NC1CCCN([O-])C(=O)C=C(C)CCOC(=O)C(NC(C)=O)CCCN([O-])C(=O)C=C(C)CCOC(=O)C(NC(C)=O)CCCN([O-])C(=O)C=C(C)CCOC1=O.[Fe+3] (stereo not shown) [[Fe]DABuFC, butanoyl[Fe]DAFC]
degree of utilization / growth support by [Fe]siderophore [7]: Medium degree

Molecule: CC(=O)NC1CCCN([O-])C(=O)C=C(C)CCOC(=O)C(NC(=O)c2ccccc2)CCCN([O-])C(=O)C=C(C)CCOC(=O)C(NC(C)=O)CCCN([O-])C(=O)C=C(C)CCOC1=O.[Fe+3] (stereo not shown) [[Fe]DABzFC, benzoyl[Fe]DAFC]
degree of utilization / growth support by [Fe]siderophore [7]: Medium degree

Molecule: CC(=O)NC1CCCN([O-])C(=O)C=C(C)CCOC(=O)C(NC(=O)CN)CCCN([O-])C(=O)C=C(C)CCOC(=O)C(NC(C)=O)CCCN([O-])C(=O)C=C(C)CCOC1=O.[Fe+3] (stereo not shown) [[Fe]DAFC(gly), glycyl[Fe]DAFC]
degree of utilization / growth support by [Fe]siderophore [7]: low degree | concentration of [Fe]siderophore at which growth was supported [7]: 1 µM

Molecule: CC(=O)N[C@H]1CCCN(O)C(=[OH+])/C=C(/C)CCOC(=O)[C@@H](NC(C)=O)CCCN(O)C(=[OH+])/C=C(/C)CCOC(=O)[C@@H](NC(C)=O)CCCN(O)C(=[OH+])/C=C(/C)CCOC1=O.[Fe] [[Fe]TAFC, triacetyl[Fe]FSC, reference compound]
degree of utilization / growth support by [Fe]siderophore [7]: Medium degree

Molecule: CC(=O)NC1CCCN([O-])C(=O)C=C(C)CCOC(=O)C(NC(=O)CN)CCCN([O-])C(=O)C=C(C)CCOC(=O)C(NC(=O)CN)CCCN([O-])C(=O)C=C(C)CCOC1=O.[Fe+3] (stereo not shown) [[Fe]MAFC(gly)2, diglycyl[Fe]MAFC]
degree of utilization / growth support by [Fe]siderophore [7]: low degree | concentration of [Fe]siderophore at which growth was supported [7]: 1 µM
